Measurements from PubChem BioAssay (NCI).
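Method: 48-hour compound exposure of cells in 96-well plates, five concentrations, linear interpolation of endpoints. Abbreviation: GI50, concentration required for 50% inhibition of growth. At the TGI there is no net growth.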

How the values were obtained:
Assay in all cases: NCI tumour cell line growth inhibition, 48 h
[1] = system: 786-0 renal
[2] = system: A549 NSCLC
[3] = system: ACHN renal
[4] = system: CAKI-1 renal
[5] = system: COLO 205 colon
[6] = system: DU-145 prostate
[7] = system: EKVX NSCLC
[8] = system: HCC-2998 colon
[9] = system: HCT-116 colon
[10] = system: HCT-15 colon
[11] = system: HOP-62 NSCLC
[12] = system: HOP-92 NSCLC
[13] = system: HS 578T breast
[14] = system: IGROV1 ovarian
[15] = system: K-562 leukemia
[16] = system: KM12 colon
[17] = system: LOX IMVI melanoma
[18] = system: M14 melanoma
[19] = system: MCF7 breast
[20] = system: MDA-MB-231 breast
[21] = system: MDA-MB-435
[22] = system: NCI-H226 lung
[23] = system: NCI-H23 lung
[24] = system: NCI-H460 lung
[25] = system: NCI-H522 lung
[26] = system: NCI/ADR-RES ovarian
[27] = system: OVCAR-4 ovarian
[28] = system: OVCAR-5 ovarian
[29] = system: OVCAR-8 ovarian
[30] = system: PC-3 prostate
[31] = system: RPMI-8226 leukemia
[32] = system: RXF 393 renal
[33] = system: SF-268 CNS
[34] = system: SF-295 CNS
[35] = system: SF-539 CNS
[36] = system: SK-MEL-2 melanoma
[37] = system: SK-MEL-28 melanoma
[38] = system: SK-MEL-5 melanoma
[39] = system: SK-OV-3 ovarian
[40] = system: SN12C renal
[41] = system: SNB-19 CNS
[42] = system: SNB-75 CNS
[43] = system: SR leukemia
[44] = system: SW-620 colon
[45] = system: T-47D breast
[46] = system: TK-10 renal
[47] = system: U251 CNS
[48] = system: UACC-257 melanoma
[49] = system: UACC-62 melanoma
[50] = system: UO-31 renal
[51] = system: A498 renal
[52] = system: BT-549 breast
[53] = system: CCRF-CEM leukemia
[54] = system: HL-60(TB) leukemia
[55] = system: HT29 colon
[56] = system: MALME-3M melanoma
[57] = system: MOLT-4 leukemia
[58] = system: OVCAR-3 ovarian

SMILES: COc1cc2cnc3c(c2c(OC)c1OC)Cc1cc2c(cc1-3)OCO2
- GI50 [1]: 3.23 µM
- TGI [1]: > 82.5 µM
- GI50 [2]: 2.64 µM
- TGI [2]: > 100 µM
- GI50 [3]: 0.243 µM
- TGI [3]: > 29.1 µM
- GI50 [4]: 0.256 µM
- TGI [4]: 1.76 µM
- GI50 [5]: 0.743 µM
- TGI [5]: > 100 µM
- GI50 [6]: > 36.1 µM
- TGI [6]: > 100 µM
- GI50 [7]: 7.54 µM
- TGI [7]: > 100 µM
- GI50 [8]: > 100 µM
- TGI [8]: > 100 µM
- GI50 [9]: 0.0694 µM
- TGI [9]: > 100 µM
- GI50 [10]: 0.102 µM
- TGI [10]: > 32.3 µM
- GI50 [11]: 0.234 µM
- TGI [11]: 10.9 µM
- TGI [12]: > 28.5 µM
- GI50 [13]: 2.38 µM
- TGI [13]: > 50.7 µM
- GI50 [14]: 2.86 µM
- TGI [14]: > 100 µM
- GI50 [15]: 0.156 µM
- TGI [15]: > 87.9 µM
- GI50 [16]: 0.255 µM
- TGI [16]: 0.874 µM
- GI50 [17]: 0.0789 µM
- TGI [17]: > 100 µM
- GI50 [18]: 0.55 µM
- TGI [18]: > 55.1 µM
- GI50 [19]: 1.32 µM
- TGI [19]: > 24.8 µM
- GI50 [20]: 0.71 µM
- TGI [20]: > 27.8 µM
- GI50 [21]: 0.207 µM
- TGI [21]: 0.446 µM
- GI50 [22]: 88.3 µM
- TGI [22]: > 100 µM
- GI50 [23]: 2.3 µM
- TGI [23]: > 100 µM
- GI50 [24]: 1.39 µM
- TGI [24]: > 100 µM
- GI50 [25]: 0.408 µM
- TGI [25]: 3.46 µM
- GI50 [26]: 10.8 µM
- TGI [26]: > 74.8 µM
- GI50 [27]: > 100 µM
- TGI [27]: > 100 µM
- GI50 [28]: > 40.8 µM
- TGI [28]: > 100 µM
- TGI [29]: > 29.4 µM
- GI50 [30]: 4.49 µM
- TGI [30]: > 100 µM
- GI50 [31]: 0.559 µM
- TGI [31]: > 100 µM
- GI50 [32]: 10.9 µM
- TGI [32]: 47.9 µM
- GI50 [33]: 2.74 µM
- TGI [33]: > 100 µM
- GI50 [34]: 0.591 µM
- TGI [34]: > 32.8 µM
- GI50 [35]: 0.869 µM
- TGI [35]: 12 µM
- GI50 [36]: 1.41 µM
- TGI [36]: > 65.1 µM
- GI50 [37]: 42.6 µM
- TGI [37]: > 100 µM
- GI50 [38]: 0.682 µM
- TGI [38]: 13.3 µM
- GI50 [39]: 69.3 µM
- TGI [39]: > 100 µM
- GI50 [40]: 0.602 µM
- TGI [40]: > 100 µM
- GI50 [41]: > 100 µM
- TGI [41]: > 100 µM
- GI50 [42]: > 100 µM
- TGI [42]: > 100 µM
- GI50 [43]: 0.0491 µM
- TGI [43]: 0.305 µM
- GI50 [44]: 1.35 µM
- TGI [44]: > 100 µM
- GI50 [45]: > 100 µM
- TGI [45]: > 100 µM
- GI50 [46]: 0.752 µM
- TGI [46]: 2.9 µM
- GI50 [47]: 0.31 µM
- TGI [47]: > 21.8 µM
- GI50 [48]: 0.99 µM
- TGI [48]: > 100 µM
- GI50 [49]: 0.204 µM
- TGI [49]: 11.2 µM
- GI50 [50]: 10.9 µM
- TGI [50]: > 100 µM

SMILES: c1ccc(-c2nnc(CCCCCCCCc3nnc(-c4ccccc4)o3)o2)cc1
- TGI [1]: > 100 µM
- TGI [51]: > 100 µM
- TGI [2]: > 100 µM
- TGI [3]: > 100 µM
- TGI [52]: > 100 µM
- TGI [4]: > 100 µM
- TGI [53]: > 100 µM
- TGI [5]: > 100 µM
- TGI [6]: > 100 µM
- TGI [7]: > 100 µM
- TGI [8]: 91.6 µM
- TGI [9]: > 100 µM
- TGI [10]: > 100 µM
- TGI [54]: > 100 µM
- TGI [11]: > 100 µM
- TGI [12]: > 100 µM
- TGI [55]: > 100 µM
- TGI [14]: > 100 µM
- TGI [15]: > 100 µM
- TGI [16]: > 100 µM
- TGI [17]: > 100 µM
- TGI [18]: > 100 µM
- TGI [56]: > 100 µM
- TGI [19]: > 100 µM
- TGI [20]: > 100 µM
- TGI [21]: > 100 µM
- TGI [57]: > 100 µM
- TGI [22]: > 100 µM
- TGI [23]: > 100 µM
- TGI [24]: > 100 µM
- TGI [25]: 61 µM
- TGI [26]: > 100 µM
- TGI [58]: > 100 µM
- TGI [27]: > 100 µM
- TGI [28]: > 100 µM
- TGI [29]: > 100 µM
- TGI [30]: > 100 µM
- TGI [33]: > 100 µM
- TGI [34]: > 100 µM
- TGI [35]: > 100 µM
- TGI [36]: > 100 µM
- TGI [37]: > 100 µM
- TGI [38]: > 100 µM
- TGI [39]: > 100 µM
- TGI [40]: > 100 µM
- TGI [41]: > 100 µM
- TGI [42]: > 100 µM
- TGI [44]: > 100 µM
- TGI [46]: > 100 µM
- TGI [47]: > 100 µM
- TGI [48]: > 100 µM
- TGI [50]: > 100 µM
